The record followed here is US10954216B2, “BMP-signal-inhibiting compound” (RIKEN, priority 2016, dated 2021).

Structures are written as SMILES.

One experiment relates to BMP signal in MDA-231-D-BREFluc/Rluc cells. Nature of the experiment: BMP signal inhibitory effect (AlphaScreen SureFire SMAD1 p-Ser463/465, BMP-6 stimulation). Type of experiment: cell-based.
Details: not given
The procedure: BMP Signal Inhibitory Effect
A BMP signal inhibitory activity of a compound of the present invention was evaluated according to the following method.
MDA-231-D-BREFluc/Rluc cells prepared according to the method described in Y. Katsuno et al., Oncogene, 27, 6322 (2008) were incubated at 37° C. for 2 hours together with test compounds, and BMP-6 (commercially available from R&D System, 507-BM-020) was then added thereto, and the mixture was additionally incubated at 37° C. for 30 minutes. A Lysis Buffer and Acceptor mix of AlphaScreen SureFire SMAD1 (p-Ser463/465) assay kit (commercially available from Perkin Elmer, TGRSM1S10K) were sequentially added thereto, the mixture was incubated at room temperature for 2 hours, and AlphaScreen Protein A kit (commercially available from Perkin Elmer, 6760617) was then added thereto, and standard AlphaScreen settings of Alpha Technology—compatible plate reader (commercially available from Perkin Elmer, EnSpire) was used for measurement.
Background: Bead proximity is the source of the signal in Alpha formats.
`CCn1cc(-c2ccnc(Nc3ccc(C(=O)N(C)C4CC5CCC(C4)N5C(C)C)cc3)n2)c(-c2cccnc2)n1` (stereo not drawn) [Example 5, 4-((4-(1-Ethyl-3-(pyridin-3-yl)-1H-pyrazol-4-yl)pyrimidin-2-yl)amino)-N-(8-isopropyl-8-azabicyclo[3.2.1]octan-3-yl)-N-methylbenzamide] yielded a half-maximal inhibitory concentration (IC50) of 16.9 nM.

The same experiment, now with this note: BMP-6 stimulated MDA-231-D-BREFluc/Rluc cells, phospho-SMAD1 AlphaScreen; read-out: IC50.
Consider `CCn1cc(-c2ccnc(Nc3ccc(C(=O)N4CCN(C(C)(C)C)CC4)cc3)n2)c(-c2cccnc2)n1` [Example 1, (4-(tert-butyl)piperazin-1-yl)(4-((4-(1-ethyl-3-(pyridin-3-yl)-1H-pyrazol-4-yl)pyrimidin-2-yl)amino)phenyl)methanone], for which the IC50 is 6.9 nM.
On the same count and under the same terms, for `CCn1cc(-c2ccnc(Nc3ccc(C(=O)N4CCCCC4)cc3)n2)c(-c2cccnc2)n1` [Example 2, (4-((4-(1-ethyl-3-(pyridin-3-yl)-1H-pyrazol-4-yl)pyrimidin-2-yl)amino)phenyl)(piperidin-1-yl)methanone] the value was 40.7 nM.
`CCn1cc(-c2ccnc(Nc3ccc(C(=O)N(C)C4CCN(C)CC4)cc3)n2)c(-c2cccnc2)n1` [Example 4, 4-((4-(1-ethyl-3-(pyridin-3-yl)-1H-pyrazol-4-yl)pyrimidin-2-yl)amino)-N-methyl-N-(1-methylpiperidin-4-yl)benzamide]: the IC50 turned out to be 16.3 nM.
The same measure, in the same setting: for `CCn1cc(-c2ccnc(Nc3ccc(C(C)=O)cc3)n2)c(-c2cccnc2)n1` [Example 6, 1-(4-((4-(1-Ethyl-3-(pyridin-3-yl)-1H-pyrazol-4-yl)pyrimidin-2-yl)amino)phenyl) ethan-1-one] the value was 29.2 nM; for `CCn1cc(-c2ccnc(Nc3ccc4c(n3)CCN(C)C4)n2)c(-c2cccnc2)n1` [Example 7, N-(4-(1-ethyl-3-(pyridin-3-yl)-1H-pyrazol-4-yl)pyrimidin-2-yl)-6-methyl-5,6,7,8-tetrahydro-1,6-naphthyridin-2-amine], 144 nM.
`CN1CCc2cc(Nc3nccc(-c4cn(C5COC5)nc4-c4cccnc4)n3)ccc2C1` [Example 8, 2-methyl-N-(4-(1-(oxetan-3-yl)-3-(pyridin-3-yl)-1H-pyrazol-4-yl)pyrimidin-2-yl)-1,2,3,4-tetrahydroisoquinolin-6-amine]: the IC50 was found to be 6.8 nM.
`CCn1cc(-c2ccnc(Nc3ccc4c(c3)CN(C3COC3)C4)n2)c(-c2cccnc2)n1` [Example 9, N-(4-(1-Ethyl-3-(pyridin-3-yl)-1H-pyrazol-4-yl)pyrimidin-2-yl)-2-(oxetan-3-yl)isoindolin-5-amine]: the IC50 was found to be 23.5 nM.
The same measure, in the same setting: in the case of `CN1CCc2cc(Nc3nccc(-c4cn(CC5CCOC5)nc4-c4cccnc4)n3)ccc2C1` (stereo not drawn) [Example 10, 2-Methyl-N-(4-(3-(pyridin-3-yl)-1-((tetrahydrofuran-3-yl)methyl)-1H-pyrazol-4-yl)pyrimidin-2-yl)-1,2,3,4-tetrahydroisoquinolin-6-amine] it was 5.8 nM.
Take `CCn1cc(-c2ccnc(Nc3ccc(C4CCN(C5COC5)CC4)cc3)n2)c(-c2cccnc2)n1` [Example 11, 4-(1-Ethyl-3-(pyridin-3-yl)-1H-pyrazol-4-yl)-N-(4-(1-(oxetan-3-yl)piperidin-4-yl)phenyl)pyrimidin-2-amine]: the IC50 is 29.4 nM.
On the same count and under the same terms, for `COCCN1CCC(c2ccc(Nc3nccc(-c4cn(C5COC5)nc4-c4cccnc4)n3)cc2)CC1` [Example 12, N-(4-(1-(2-methoxyethyl)piperidin-4-yl)phenyl)-4-(1-(oxetan-3-yl)-3-(pyridin-3-yl)-1H-pyrazol-4-yl)pyrimidin-2-amine] the value was 6.6 nM.
For the molecule `COCCn1cc(-c2ccnc(Nc3ccc(C4CCN(C5COC5)CC4)cc3)n2)c(-c2cccnc2)n1` [Example 13], the half-maximal inhibitory concentration (IC50) amounted to 26.8 nM.
Same read-out and setting: for `CCn1cc(-c2ccnc(Nc3ccc(-c4cn5ccccc5n4)cc3)n2)c(-c2cccnc2)n1` [Example 14, 4-(1-ethyl-3-(pyridin-3-yl)-1H-pyrazol-4-yl)-N-(4-(imidazo[1,2-a]pyridin-2-yl)phenyl)pyrimidin-2-amine] the value was 36.4 nM.
Same read-out and setting: in the case of `CCn1cc(-c2ccnc(Nc3ccc(N4CCN(CCOC)CC4)c(F)c3)n2)c(-c2cccnc2)n1` [Example 18, 4-(1-Ethyl-3-(pyridin-3-yl)-1H-pyrazol-4-yl)-N-(3-fluoro-4-(4-(2-methoxyethyl)piperazin-1-yl)phenyl)pyrimidin-2-amine] it was 30.8 nM.
For `CCn1cc(-c2ccnc(Nc3ccc(N4CCC(N5CCN(C)CC5)CC4)cc3)n2)c(-c2cccnc2)n1` [Example 20], the half-maximal inhibitory concentration (IC50) came to 11.8 nM.
Same read-out and setting: for `CCn1cc(-c2ccnc(Nc3ccc(N4CCC5(CC4)CN(C(C)=O)C5)cc3)n2)c(-c2cccnc2)n1` [Example 21, 1-(7-(4-((4-(1-ethyl-3-(pyridin-3-yl)-1H-pyrazol-4-yl)pyrimidin-2-yl)amino)phenyl)-2,7-diazaspiro[3.5]nonan-2-yl)ethan-1-one] the value was 39 nM.
Same read-out and setting: for `CCn1cc(-c2ccnc(Nc3ccc(N4CCOCC4)cc3)n2)c(-c2cccnc2)n1` [Example 22, 4-(1-ethyl-3-(pyridin-3-yl)-1H-pyrazol-4-yl)-N-(4-morpholinophenyl)pyrimidin-2-amine] the value was 19 nM; for `CCn1cc(-c2ccnc(Nc3cccc(OCCN(C)C)c3)n2)c(-c2cccnc2)n1` [Example 24, N-(3-(2-(dimethylamino)ethoxy)phenyl)-4-(1-ethyl-3-(pyridin-3-yl)-1H-pyrazol-4-yl)pyrimidin-2-amine], 5.3 nM; for `CCn1cc(-c2ccnc(Nc3ccc(-n4cnc(C)n4)cc3)n2)c(-c2cccnc2)n1` [Example 26, 4-(1-ethyl-3-(pyridin-3-yl)-1H-pyrazol-4-yl)-N-(4-(3-methyl-1H-1,2,4-triazol-1-yl)phenyl)pyrimidin-2-amine], 18.5 nM.
Regarding `CCn1cc(-c2ccnc(Nc3ccc(-c4cnn(CCOC)c4)cc3)n2)c(-c2cccnc2)n1` [Example 28, 4-(1-Ethyl-3-(pyridin-3-yl)-1H-pyrazol-4-yl)-N-(4-(1-(2-methoxyethyl)-1H-pyrazol-4-yl)phenyl)pyrimidin-2-amine], the IC50 was found to be 24.6 nM.
For the molecule `CCn1cc(-c2ccnc(Nc3ccc(-c4cn[nH]c4)cc3)n2)c(-c2cccnc2)n1` [Example 30, N-(4-(1H-pyrazol-4-yl)phenyl)-4-(1-ethyl-3-(pyridin-3-yl)-1H-pyrazol-4-yl)pyrimidin-2-amine], the concentration for half-maximal inhibition (IC50) stood at 32.9 nM.
Same read-out and setting: in the case of `CCn1cc(-c2ccnc(Nc3ccc(N4CCN(CC(=O)N5CCCCC5)CC4)cc3)n2)c(-c2cccnc2)n1` [Example 31, 2-(4-(4-((4-(1-Ethyl-3-(pyridin-3-yl)-1H-pyrazol-4-yl)pyrimidin-2-yl)amino)phenyl)piperazin-1-yl)-1-(piperidin-1-yl)ethan-1-one] it was 19.7 nM; in that of `CCn1cc(-c2ccnc(Nc3ccc(N4CCN(C5CC5)CC4)cc3)n2)c(-c2cccnc2)n1` [Example 32, N-(4-(4-cyclopropylpiperazin-1-yl)phenyl)-4-(1-ethyl-3-(pyridin-3-yl)-1H-pyrazol-4-yl)pyrimidin-2-amine], 21.3 nM.
The same measure, in the same setting: for `CCn1cc(-c2ccnc(Nc3cccc(N4CCN(C)CC4)c3)n2)c(-c2cccnc2)n1` [Example 34, 4-(1-ethyl-3-(pyridin-3-yl)-1H-pyrazol-4-yl)-N-(3-(4-methylpiperazin-1-yl)phenyl)pyrimidin-2-amine] the value was 17.3 nM.

By IC50 is commonly meant the concentration needed to halve the response being measured.
